pKi: −log10 of the molar value.
What was measured:
Carbonic anhydrase 1 = Carbonic anhydrase 1 (Homo sapiens, UniProt P00915); experiment: Inhibition of recombinant human carbonic anhydrase 1 preincubated with enzyme for 15 mins by phenol red dye based stopped flow CO2 hydration assay
Carbonic anhydrase 2 = Carbonic anhydrase 2 (Homo sapiens, UniProt P00918); experiment: Inhibition of recombinant human carbonic anhydrase 2 preincubated with enzyme for 15 mins by phenol red dye based stopped flow CO2 hydration assay
Carbonic anhydrase 4 = Carbonic anhydrase 4 (Homo sapiens, UniProt P22748); experiment: Inhibition of recombinant human carbonic anhydrase 4 preincubated with enzyme for 15 mins by phenol red dye based stopped flow CO2 hydration assay
Carbonic anhydrase 7 = Carbonic anhydrase 7 (Homo sapiens, UniProt P43166); experiment: Inhibition of recombinant human carbonic anhydrase 7 preincubated with enzyme for 15 mins by phenol red dye based stopped flow CO2 hydration assay
Carbonic anhydrase 9 = Carbonic anhydrase 9 (Homo sapiens, UniProt Q16790); experiment: Inhibition of recombinant human carbonic anhydrase 9 preincubated with enzyme for 15 mins by phenol red dye based stopped flow CO2 hydration assay

Carbonic anhydrase 4, sequence (P22748 whole entry): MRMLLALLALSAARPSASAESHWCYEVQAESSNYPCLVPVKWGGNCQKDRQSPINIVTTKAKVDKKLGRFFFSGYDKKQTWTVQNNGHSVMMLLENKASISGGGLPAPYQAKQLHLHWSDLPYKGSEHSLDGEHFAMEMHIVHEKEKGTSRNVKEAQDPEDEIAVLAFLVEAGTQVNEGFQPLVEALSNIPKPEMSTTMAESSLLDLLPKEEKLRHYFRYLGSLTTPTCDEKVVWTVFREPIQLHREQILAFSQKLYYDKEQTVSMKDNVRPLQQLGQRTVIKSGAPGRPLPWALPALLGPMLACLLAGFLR
Carbonic anhydrase 7, sequence (P43166 whole entry): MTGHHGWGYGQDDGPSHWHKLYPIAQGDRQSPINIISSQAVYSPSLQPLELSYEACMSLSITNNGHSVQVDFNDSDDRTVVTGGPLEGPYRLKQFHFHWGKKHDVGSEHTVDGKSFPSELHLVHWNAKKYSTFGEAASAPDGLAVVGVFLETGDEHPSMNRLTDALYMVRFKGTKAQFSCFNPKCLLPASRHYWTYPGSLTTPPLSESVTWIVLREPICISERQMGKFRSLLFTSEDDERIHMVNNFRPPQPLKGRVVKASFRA
Carbonic anhydrase 1, sequence (P00915 whole entry): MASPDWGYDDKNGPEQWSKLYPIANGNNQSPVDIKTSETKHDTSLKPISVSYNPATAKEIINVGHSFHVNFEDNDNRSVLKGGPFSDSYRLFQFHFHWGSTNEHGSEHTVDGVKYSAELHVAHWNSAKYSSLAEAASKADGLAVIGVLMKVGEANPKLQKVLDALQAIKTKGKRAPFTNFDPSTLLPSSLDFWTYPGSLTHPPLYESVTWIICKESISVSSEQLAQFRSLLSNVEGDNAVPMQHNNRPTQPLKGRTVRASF

Row | SMILES | pKi (Carbonic anhydrase 1) | pKi (Carbonic anhydrase 2) | pKi (Carbonic anhydrase 4) | pKi (Carbonic anhydrase 7) | pKi (Carbonic anhydrase 9)
1 | O=C1c2ccccc2C(=O)C1(O)O | 5.27 | 4.64 | < 4.00 | 7.13 | 5.63
2 | O=C1c2ccc([N+](=O)[O-])cc2C(=O)C1(O)O |  |  | < 4.00 |  | 4.53
3 | O=C1c2cccc(Br)c2C(=O)C1(O)O |  |  | < 4.00 |  | 4.21
4 | COc1cc2c(cc1OC)C(=O)C(O)(O)C2=O |  |  | < 4.00 |  | 4.52
5 | O=C1c2cccc(O)c2C(=O)C1(O)O |  |  | < 4.00 |  | 4.77
6 | O=C1c2cccc(F)c2C(=O)C1(O)O |  |  | < 4.00 |  | 4.35
7 | COc1ccc2c(c1)C(=O)C(O)(O)C2=O |  |  | 4.13 |  | 4.87
8 | COc1ccc(OC)c2c1C(=O)C(O)(O)C2=O |  |  | < 4.00 |  | 4.17
9 | O=C1c2ccc(O)cc2C(=O)C1(O)O |  |  | < 4.00 |  | 4.56
10 | O=C1c2c(Br)c(Br)c(Br)c(Br)c2C(=O)C1(O)O |  |  | 4.40 |  | 4.33

Second part, the molecule after the results:

Row | pKi (Carbonic anhydrase 1) | pKi (Carbonic anhydrase 2) | pKi (Carbonic anhydrase 4) | pKi (Carbonic anhydrase 7) | pKi (Carbonic anhydrase 9) | SMILES
11 |  |  | < 4.00 |  | 5.55 | O=C1c2cc(Br)cc(Br)c2C(=O)C1(O)O
12 |  |  | 4.07 |  | 4.77 | Cc1ccc2c(c1)C(=O)C(O)(O)C2=O
13 |  |  | < 4.00 |  | 5.08 | COc1ccc(CNC(=O)CCl)c2c1C(=O)C(O)(O)C2=O
14 |  |  | < 4.00 |  | 4.51 | O=C1c2cccc([N+](=O)[O-])c2C(=O)C1(O)O
15 |  |  | 4.15 |  | 5.55 | O=C1c2ccc(Br)cc2C(=O)C1(O)O
16 |  |  | < 4.00 |  | 4.29 | Cc1cccc2c1C(=O)C(O)(O)C2=O
17 |  |  | < 4.00 |  | 5.87 | CC(C)Oc1cccc2c1C(=O)C(O)(O)C2=O
18 |  |  | < 4.00 |  | 4.41 | O=C1c2ccc(F)cc2C(=O)C1(O)O
19 |  |  | < 4.00 |  | 4.27 | COc1ccc(C(C)C)c2c1C(=O)C(O)(O)C2=O
20 |  |  | < 4.00 |  | 4.47 | COc1cccc2c1C(=O)C(O)(O)C2=O

Source: ChEMBL document CHEMBL4732063, “Ninhydrins inhibit carbonic anhydrases directly binding to the metal ion” (Eur J Med Chem, 2021)
